The record followed here is US20170037014A1, “FUNGICIDAL PYRAZOLES” (E. I. DU PONT DE NEMOURS AND COMPANY, priority 2014, published 2017).

The test system of data set [1] is Puccinia recondita f sp. tritici. Put plainly: Test A: wheat leaf rust, preventive spray on wheat seedlings, visual disease rating. The data set is classed as in vivo. Particulars: 100 = 100% disease control, 0 = no control. From the text:
General protocol for preparing test suspensions for Tests A-D: the test compounds were first dissolved in acetone in an amount equal to 3% of the final volume and then suspended at the desired concentration (in ppm) in acetone and purified water (50/50 mix by volume) containing 250 ppm of the surfactant Trem® 014 (polyhydric alcohol esters). The resulting test suspensions were then used in Tests A-D. The test suspension was sprayed to the point of run-off on wheat seedlings. The following day the seedlings were inoculated with a spore suspension of Puccinia recondita f sp. tritici (the causal agent of wheat leaf rust) and incubated in a saturated atmosphere at 20° C. for 24 h, and then moved to a growth chamber at 20° C. for 7 days, after which time visual disease ratings were made. In the Table, a rating of 100 indicates 100% disease control and a rating of 0 indicates no disease control (relative to the controls). A dash (−) indicates no test results. All results are for 250 ppm except where followed by an “*” which indicates 50 ppm, and where followed by an “**” which indicates 10 ppm

The subject of another data set is Botrytis cinerea. Put plainly: Test C: tomato Botrytis, preventive spray on tomato seedlings, visual disease rating. The data set is classed as in vivo. Particulars: Botrytis cinerea, 100 = 100% disease control, 0 = no control. From the text:
General protocol for preparing test suspensions for Tests A-D: the test compounds were first dissolved in acetone in an amount equal to 3% of the final volume and then suspended at the desired concentration (in ppm) in acetone and purified water (50/50 mix by volume) containing 250 ppm of the surfactant Trem® 014 (polyhydric alcohol esters). The resulting test suspensions were then used in Tests A-D. The test suspension was sprayed to the point of run-off on tomato seedlings. The following day the seedlings were inoculated with a spore suspension of Botrytis cinerea (the causal agent of tomato Botrytis) and incubated in a saturated atmosphere at 20° C. for 48 h, and then moved to a growth chamber at 24° C. for 3 days, after which time visual disease ratings were made. In the Table, a rating of 100 indicates 100% disease control and a rating of 0 indicates no disease control (relative to the controls). A dash (−) indicates no test results. All results are for 250 ppm except where followed by an “*” which indicates 50 ppm, and where followed by an “**” which indicates 10 ppm

The test system of another data set is Septoria tritici. In words: Test B: wheat leaf blotch, preventive spray on wheat seedlings, visual disease rating. The data set is classed as in vivo. The following applies: Zymoseptoria tritici, 100 = 100% disease control, 0 = no control. From the text:
General protocol for preparing test suspensions for Tests A-D: the test compounds were first dissolved in acetone in an amount equal to 3% of the final volume and then suspended at the desired concentration (in ppm) in acetone and purified water (50/50 mix by volume) containing 250 ppm of the surfactant Trem® 014 (polyhydric alcohol esters). The resulting test suspensions were then used in Tests A-D. The test suspension was sprayed to the point of run-off on wheat seedlings. The following day the seedlings were inoculated with a spore suspension of Septoria tritici (the causal agent of wheat leaf blotch) and incubated in a saturated atmosphere at 24° C. for 48 h, and then moved to a growth chamber at 20° C. for 19 days, after which time visual disease ratings were made. In the Table, a rating of 100 indicates 100% disease control and a rating of 0 indicates no disease control (relative to the controls). A dash (−) indicates no test results. All results are for 250 ppm except where followed by an “*” which indicates 50 ppm, and where followed by an “**” which indicates 10 ppm

The test system of data set [2] is Blumeria graminis f sp. tritici. Put plainly: Test D: wheat powdery mildew, preventive spray on wheat seedlings, visual disease rating. The data set is classed as in vivo. Particulars: Blumeria graminis, 100 = 100% disease control, 0 = no control. From the text: General protocol for preparing test suspensions for Tests A-D: the test compounds were first dissolved in acetone in an amount equal to 3% of the final volume and then suspended at the desired concentration (in ppm) in acetone and purified water (50/50 mix by volume) containing 250 ppm of the surfactant Trem® 014 (polyhydric alcohol esters). The resulting test suspensions were then used in Tests A-D. The test suspension was sprayed to the point of run-off on wheat seedlings. The following day the seedlings were inoculated with a spore dust of Blumeria graminis f sp. tritici, (also known as Erysiphe graminis f. sp. tritici, the causal agent of wheat powdery mildew) and incubated in a growth chamber at 20° C. for 8 days, after which time visual disease ratings were made. In the Table, a rating of 100 indicates 100% disease control and a rating of 0 indicates no disease control (relative to the controls). A dash (−) indicates no test results. All results are for 250 ppm except where followed by an “*” which indicates 50 ppm, and where followed by an “**” which indicates 10 ppm

`CCC(C)c1c(C(O)c2c(Cl)cccc2Cl)c(C)nn1C` (stereo not drawn) [Compound 24, α-(2,6-dichlorophenyl)-1,3-dimethyl-5-(1-methylpropyl)-1H-pyrazole-4-methanol]: the melting point is 175 to 178 °C. Also, the pest or weed control at 50 ppm in data set [1] was determined as 99%. In the data set on Botrytis cinerea, this compound returned a pest or weed control at 50 ppm of 40%. This compound showed a pest or weed control at 50 ppm with Septoria tritici of 69%. The compound further registered a pest or weed control at 50 ppm in data set [2] of 84%.

In turn, `Cc1nn(C)c(C2CCCCC2)c1C(O)c1ccc(F)cc1F` (stereo not drawn) [Compound 11, 5-cyclohexyl-α-(2,4-difluorophenyl)-1,3-dimethyl-1H-pyrazole-4-methanol] gave a melting point of 161 to 164 °C. In data set [1], this compound returned a pest or weed control at 250 ppm of 99%. In addition, in the data set on Botrytis cinerea, the pest or weed control at 250 ppm turned out to be 99%. In the data set on Septoria tritici, the pest or weed control at 250 ppm amounted to 100%. Also, the pest or weed control at 250 ppm in data set [2] worked out at 97%.

With `Cc1nn(C)c(CC(C)C)c1C(O)c1ccc(F)cc1F` (stereo not drawn) [Compound 14, α-(2,4-difluorophenyl)-1,3-dimethyl-5-(2-methylpropyl)-1H-pyrazole-4-methanol], the melting point was 129 to 133 °C. In data set [1], this compound displayed a pest or weed control at 50 ppm of 74%. The pest or weed control at 50 ppm in the data set on Botrytis cinerea was 16%. Further, the pest or weed control at 50 ppm in the data set on Septoria tritici was 99%. In data set [2], the pest or weed control at 50 ppm amounted to 98%.

For `Cc1nn(C)c(C(C)C)c1C(O)c1ccc(F)cc1Cl` (stereo not drawn) [Compound 1, α-(2-chloro-4-fluorophenyl)-1,3-dimethyl-5-(1-methylethyl)-1H-pyrazole-4-methanol], the melting point lay in the range of 152 to 154 °C. The pest or weed control at 50 ppm in data set [1] stood at 98%. The pest or weed control at 50 ppm in the data set with Botrytis cinerea stood at 33%. In addition, in the data set on Septoria tritici, the pest or weed control at 50 ppm came to 100%. This compound showed a pest or weed control at 50 ppm in data set [2] of 97%.

As to `Cc1nn(C)c(C2CCCCC2)c1C(O)c1ccc(F)cc1Cl` (stereo not drawn) [Compound 8, α-(2-chloro-4-fluorophenyl)-5-cyclohexyl-1,3-dimethyl-1H-pyrazole-4-methanol], the melting point fell in the range of 146 to 149 °C. In data set [1], the pest or weed control at 250 ppm came out at 99%. The pest or weed control at 250 ppm in the data set on Botrytis cinerea was determined as 86%. Further, in the data set on Septoria tritici, the pest or weed control at 250 ppm stood at 99%. In data set [2], the pest or weed control at 250 ppm turned out to be 93%.

Usually pest or weed control stands for the degree to which the test organism was suppressed or injured, in per cent. Low readings indicate a weak effect, high ones a strong effect. For orientation: melting point means the temperature, or range, at which the solid turns liquid.
